Source: ChEMBL document CHEMBL1240344, “Phage-encoded combinatorial chemical libraries based on bicyclic peptides” (Nat Chem Biol, 2009)
The source made the active and inactive calls. No cut-off for these calls is given here. Starred links: 1 amine or outer side, 2 acyl side, 3 side chain; linkers in the order of their positions; H or OH if unused. Positions of bridges follow the written chain, without caps; N, C: chain ends. Residues, ends and D or L forms follow the SMILES beside them. TBMB = c1c(C[*:1])cc(C[*:3])cc1C[*:2]

Legend:
Plasma kallikrein = Plasma kallikrein (Homo sapiens, UniProt P03952); test: Inhibition of human plasma kallikrein using Z-Phe-Arg-AMC substrate after 30 mins by spectrophotometric assay
Sequence of Plasma kallikrein (P03952 20-390 limits assumed): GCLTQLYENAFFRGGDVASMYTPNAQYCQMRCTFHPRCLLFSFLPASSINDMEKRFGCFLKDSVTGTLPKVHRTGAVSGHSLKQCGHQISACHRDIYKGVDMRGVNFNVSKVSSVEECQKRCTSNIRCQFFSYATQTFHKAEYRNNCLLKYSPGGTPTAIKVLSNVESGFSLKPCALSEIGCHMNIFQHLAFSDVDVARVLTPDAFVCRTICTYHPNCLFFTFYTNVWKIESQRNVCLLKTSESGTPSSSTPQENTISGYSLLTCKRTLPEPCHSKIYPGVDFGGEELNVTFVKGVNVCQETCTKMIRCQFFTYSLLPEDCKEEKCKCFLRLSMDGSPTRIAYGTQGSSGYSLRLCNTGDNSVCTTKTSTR
Sequence of Plasma kallikrein (P03952 391-638 limits assumed): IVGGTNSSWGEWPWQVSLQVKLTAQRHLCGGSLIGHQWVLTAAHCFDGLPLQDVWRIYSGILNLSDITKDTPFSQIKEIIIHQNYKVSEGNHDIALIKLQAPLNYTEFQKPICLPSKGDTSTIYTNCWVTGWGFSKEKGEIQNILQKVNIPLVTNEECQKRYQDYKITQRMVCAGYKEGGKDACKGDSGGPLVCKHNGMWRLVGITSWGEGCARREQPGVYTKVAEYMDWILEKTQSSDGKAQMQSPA

[1] = target: Plasma kallikrein (Mus musculus) (UniProt P26262); test: Inhibition of mouse plasma kallikrein at 10 uM using Z-Phe-Arg-AMC substrate after 30 mins by spectrophotometric assay; type: cell-free
Sequence of Plasma kallikrein (Mus musculus) (P26262 20-390 limits assumed): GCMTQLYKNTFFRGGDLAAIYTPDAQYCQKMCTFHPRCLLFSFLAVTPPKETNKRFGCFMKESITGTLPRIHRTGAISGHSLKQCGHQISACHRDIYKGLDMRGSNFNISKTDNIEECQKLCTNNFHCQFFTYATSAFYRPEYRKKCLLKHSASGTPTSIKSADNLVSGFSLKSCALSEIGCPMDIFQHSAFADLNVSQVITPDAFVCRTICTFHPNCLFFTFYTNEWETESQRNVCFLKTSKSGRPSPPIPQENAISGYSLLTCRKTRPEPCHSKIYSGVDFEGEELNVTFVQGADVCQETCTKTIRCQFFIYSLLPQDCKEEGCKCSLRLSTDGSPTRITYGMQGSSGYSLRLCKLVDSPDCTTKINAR
Sequence of Plasma kallikrein (Mus musculus) (P26262 391-638 limits assumed): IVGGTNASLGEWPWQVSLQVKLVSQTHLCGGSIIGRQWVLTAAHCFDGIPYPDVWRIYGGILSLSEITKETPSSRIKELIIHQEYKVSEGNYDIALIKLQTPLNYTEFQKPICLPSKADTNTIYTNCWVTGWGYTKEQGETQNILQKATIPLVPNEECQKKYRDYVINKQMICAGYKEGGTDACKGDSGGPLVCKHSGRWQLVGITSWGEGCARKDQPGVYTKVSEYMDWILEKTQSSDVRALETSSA

[2] = target: Coagulation factor XI (Homo sapiens) (UniProt P03951); test: Inhibition of human factor 11a at 10 uM using Z-Phe-Arg-AMC substrate after 30 mins by spectrophotometric assay
Sequence of Coagulation factor XI (Homo sapiens) (P03951 19-387 limits assumed): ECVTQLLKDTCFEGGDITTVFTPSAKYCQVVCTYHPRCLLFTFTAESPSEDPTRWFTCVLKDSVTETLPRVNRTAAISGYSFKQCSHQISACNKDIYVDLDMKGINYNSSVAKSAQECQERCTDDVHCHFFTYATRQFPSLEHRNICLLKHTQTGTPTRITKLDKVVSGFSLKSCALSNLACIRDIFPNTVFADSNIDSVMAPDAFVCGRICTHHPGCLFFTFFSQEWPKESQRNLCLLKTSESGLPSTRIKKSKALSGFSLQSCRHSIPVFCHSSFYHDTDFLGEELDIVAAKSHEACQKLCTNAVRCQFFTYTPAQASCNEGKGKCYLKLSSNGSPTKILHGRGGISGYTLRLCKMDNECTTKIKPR
Sequence of Coagulation factor XI (Homo sapiens) (P03951 388-625 limits assumed): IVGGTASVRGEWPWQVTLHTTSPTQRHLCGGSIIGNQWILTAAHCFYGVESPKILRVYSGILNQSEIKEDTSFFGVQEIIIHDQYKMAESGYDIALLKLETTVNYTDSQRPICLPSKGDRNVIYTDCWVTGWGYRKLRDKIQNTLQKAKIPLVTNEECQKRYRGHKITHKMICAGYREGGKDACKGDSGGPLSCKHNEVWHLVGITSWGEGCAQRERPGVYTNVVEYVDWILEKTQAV

[3] = target: Prothrombin (Homo sapiens) (UniProt P00734); test: Inhibition of human thrombin at 10 uM using Boc-Phe-Ser-Arg-AMC substrate after 30 mins by spectrophotometric assay

| SMILES | IC50 (Plasma kallikrein) | inhibition [1] | inhibition [2] | inhibition [3] |
| --- | --- | --- | --- | --- |
| CC[C@H](C)[C@@H]1NC(=O)[C@H](CCC(=O)O)NC(=O)[C@H]([C@@H](C)CC)NC(=O)[C@@H]2CCCN2C(=O)[C@@H]2CSCc3cc(cc(c3)CSC[C@@H](C(=O)NCC(N)=O)NC(=O)[C@@H]3CCCN3C(=O)[C@H](Cc3ccccc3)NC1=O)CSC[C@H](NC(=O)[C@H](C)N)C(=O)N[C@@H](CO)C(=O)N[C@@H]([C@H](C)O)C(=O)N[C@@H](CCC(=O)O)C(=O)N[C@@H](CCCNC(=N)N)C(=O)N[C@@H](CCCNC(=N)N)C(=O)N[C@@H](Cc1ccc(O)cc1)C(=O)N2 | 33 nM |  |  |  |
| CC(C)[C@H](NC(=O)[C@H](CCCN=C(N)N)NC(=O)[C@H](CS)NC(=O)[C@H](CCCN=C(N)N)NC(=O)CNC(=O)[C@H](CCC(=O)O)NC(=O)CNC(=O)[C@@H](NC(=O)CNC(=O)[C@H](CS)NC(=O)[C@H](C)N)[C@@H](C)O)C(=O)N[C@@H](CC(N)=O)C(=O)N[C@@H](Cc1c[nH]c2ccccc12)C(=O)N[C@H](C(=O)N1CCC[C@H]1C(=O)N[C@@H](CS)C(=O)NCC(N)=O)[C@@H](C)O | > 10000 nM |  |  |  |
| CC(C)[C@@H]1NC(=O)[C@H](CCCNC(=N)N)NC(=O)[C@@H]2CSCc3cc(cc(c3)CSC[C@@H](C(=O)NCC(N)=O)NC(=O)[C@@H]3CCCN3C(=O)[C@H]([C@H](C)O)NC(=O)[C@H](Cc3c[nH]c4ccccc34)NC(=O)[C@H](CC(N)=O)NC1=O)CSC[C@H](NC(=O)[C@H](C)N)C(=O)NCC(=O)N[C@@H]([C@H](C)O)C(=O)NCC(=O)N[C@@H](CCC(=O)O)C(=O)NCC(=O)N[C@@H](CCCNC(=N)N)C(=O)N2 | 39.1 nM |  |  |  |
| CC(C)[C@H](NC(=O)[C@H](CCCNC(=N)N)NC(=O)[C@H](CS)NC(=O)[C@H](CCCNC(=N)N)NC(=O)CNC(=O)[C@H](CCC(=O)O)NC(=O)CNC(=O)[C@@H](NC(=O)CNC(=O)[C@H](CS)NC(=O)[C@@H](C)N)[C@H](C)O)C(=O)N[C@@H](CC(N)=O)C(=O)N[C@@H](Cc1c[nH]c2ccccc12)C(=O)N[C@H](C(=O)N1CCC[C@H]1C(=O)N[C@@H](CS)C(=O)NCC(N)=O)[C@@H](C)O |  | inactive | inactive | inactive |
| CSCC[C@H](NC(=O)[C@H](CC(C)C)NC(=O)[C@H](CC(=O)O)NC(=O)[C@H](CCC(=O)O)NC(=O)[C@H](Cc1ccc(O)cc1)NC(=O)[C@H](CS)NC(=O)[C@H](C)NC(=O)[C@@H](NC(=O)[C@H](CCCN=C(N)N)NC(=O)[C@H](Cc1c[nH]c2ccccc12)NC(=O)[C@@H]1CCCN1C(=O)[C@H](C)NC(=O)[C@H](CS)NC(=O)[C@H](C)N)[C@@H](C)O)C(=O)N[C@@H](Cc1c[nH]c2ccccc12)C(=O)N[C@@H](CS)C(=O)NCC(N)=O (H-ACAPWRTACYEDLMWCG-NH2) | 5710 nM |  |  |  |
| CSCC[C@H](NC(=O)[C@H](CC(C)C)NC(=O)[C@H](CC(=O)O)NC(=O)[C@H](CCC(=O)O)NC(=O)[C@H](Cc1ccc(O)cc1)NC(=O)[C@H](CS)NC(=O)[C@H](C)NC(=O)[C@@H](NC(=O)[C@H](CCCNC(=N)N)NC(=O)[C@H](Cc1c[nH]c2ccccc12)NC(=O)[C@@H]1CCCN1C(=O)[C@H](C)NC(=O)[C@H](CS)NC(=O)[C@H](C)N)[C@@H](C)O)C(=O)N[C@@H](Cc1c[nH]c2ccccc12)C(=O)N[C@@H](CS)C(=O)NCC(N)=O (H-ACAPWRTACYEDLMWCG-NH2) |  | inactive | inactive | inactive |
| CSCC[C@@H]1NC(=O)[C@H](CO)NC(=O)[C@H](Cc2c[nH]c3ccccc23)NC(=O)[C@@H]2CCCN2C(=O)[C@@H]2CSCc3cc(cc(c3)CSC[C@H](NC(=O)[C@H](C)N)C(=O)N[C@@H](CC(=O)O)C(=O)N[C@@H](CO)C(=O)N[C@@H](CCCNC(=N)N)C(=O)N[C@@H](Cc3ccccc3)C(=O)N[C@@H](CCCNC(=N)N)C(=O)N[C@@H](CC(N)=O)C(=O)N2)CSC[C@@H](C(=O)NCC(N)=O)NC(=O)CNC(=O)[C@H](CO)NC1=O (H-ACDSRFRNCPWSMSGCG-NH2; linker 2-9-16 via TBMB) | 1500 nM |  |  |  |
| CC[C@H](C)[C@@H]1NC(=O)[C@H](CC(N)=O)NC(=O)[C@H](CC(N)=O)NC(=O)[C@H](C(C)C)NC(=O)[C@H](CCCNC(=N)N)NC(=O)[C@@H]2CSCc3cc(cc(c3)CSC[C@@H](C(=O)NCC(N)=O)NC(=O)[C@H](CO)NC1=O)CSC[C@H](NC(=O)[C@H](C)N)C(=O)NCC(=O)NCC(=O)N[C@@H](CC(N)=O)C(=O)N[C@@H](CO)C(=O)N[C@@H](CC(=O)O)C(=O)N[C@@H](CCCNC(=N)N)C(=O)N2 (H-ACGGNSDRCRVNNISCG-NH2; linker 2-9-16 via TBMB) | 2000 nM |  |  |  |
| CC(C)C[C@H](NC(=O)[C@H](C)NC(=O)[C@H](CCC(=O)O)NC(=O)[C@H](CC(=O)O)NC(=O)[C@H](C)NC(=O)[C@@H]1CCCN1C(=O)[C@H](CS)NC(=O)[C@H](CC(N)=O)NC(=O)[C@H](CCCNC(=N)N)NC(=O)[C@H](Cc1ccccc1)NC(=O)[C@H](CCCNC(=N)N)NC(=O)[C@H](CC(=O)O)NC(=O)[C@H](CO)NC(=O)[C@H](CS)NC(=O)[C@H](C)N)C(=O)N[C@@H](CS)C(=O)NCC(N)=O (H-ACSDRFRNCPADEALCG-NH2) | > 10000 nM | inactive | inactive | inactive |
| CC(C)C[C@H](NC(=O)[C@@H]1CCCN1C(=O)[C@H](CS)NC(=O)[C@H](CC(N)=O)NC(=O)[C@H](CCCNC(=N)N)NC(=O)[C@H](Cc1ccccc1)NC(=O)[C@H](CCCNC(=N)N)NC(=O)[C@H](CC(=O)O)NC(=O)[C@H](CO)NC(=O)[C@H](CS)NC(=O)[C@H](C)N)C(=O)N[C@@H](Cc1c[nH]c2ccccc12)C(=O)N[C@@H](CO)C(=O)NCC(=O)N[C@H](C(=O)N[C@@H](CS)C(=O)NCC(N)=O)[C@@H](C)O (H-ACSDRFRNCPLWSGTCG-NH2) | > 10000 nM | inactive | inactive | inactive |
| CC(C)C[C@@H]1NC(=O)[C@H](C)NC(=O)[C@H](CCC(=O)O)NC(=O)[C@H](CC(=O)O)NC(=O)[C@H](C(C)C)NC(=O)[C@@H]2CCCN2C(=O)[C@@H]2CSCc3cc(cc(c3)CSC[C@@H](C(=O)NCC(N)=O)NC1=O)CSC[C@H](NC(=O)[C@H](C)N)C(=O)N[C@@H](CO)C(=O)N[C@@H](CC(=O)O)C(=O)N[C@@H](CCCNC(=N)N)C(=O)N[C@@H](Cc1ccccc1)C(=O)N[C@@H](CCCNC(=N)N)C(=O)N[C@@H](CC(N)=O)C(=O)N2 (H-ACSDRFRNCPVDEALCG-NH2; linker 2-9-16 via TBMB) | 20 nM |  |  |  |
| CC(C)C[C@@H]1NC(=O)[C@H](Cc2c[nH]c3ccccc23)NC(=O)[C@H](CCC(=O)O)NC(=O)[C@H](CC(=O)O)NC(=O)[C@H](C(C)C)NC(=O)[C@@H]2CCCN2C(=O)[C@@H]2CSCc3cc(cc(c3)CSC[C@@H](C(=O)NCC(N)=O)NC1=O)CSC[C@H](NC(=O)[C@H](C)N)C(=O)N[C@@H](CO)C(=O)N[C@@H](CC(=O)O)C(=O)N[C@@H](CCCNC(=N)N)C(=O)N[C@@H](Cc1ccccc1)C(=O)N[C@@H](CCCNC(=N)N)C(=O)N[C@@H](CC(N)=O)C(=O)N2 (H-ACSDRFRNCPVDEWLCG-NH2; linker 2-9-16 via TBMB) | 30 nM |  |  |  |
| CC(C)[C@@H]1NC(=O)[C@@H]2CCCN2C(=O)[C@@H]2CSCc3cc(cc(c3)CSC[C@@H](C(=O)NCC(N)=O)NC(=O)[C@H](C)NC(=O)[C@H](CO)NC(=O)[C@H](CCC(=O)O)NC(=O)[C@H](CO)NC1=O)CSC[C@H](NC(=O)[C@H](C)N)C(=O)N[C@@H](CO)C(=O)N[C@@H](CC(=O)O)C(=O)N[C@@H](CCCNC(=N)N)C(=O)N[C@@H](Cc1ccccc1)C(=O)N[C@@H](CCCNC(=N)N)C(=O)N[C@@H](CC(N)=O)C(=O)N2 (H-ACSDRFRNCPVSESACG-NH2; linker 2-9-16 via TBMB) | 50 nM |  |  |  |
| CC(C)C[C@@H]1NC(=O)[C@H]([C@@H](C)O)NC(=O)[C@H](Cc2ccc(O)cc2)NC(=O)[C@@H]2CCCN2C(=O)[C@@H]2CSCc3cc(cc(c3)CSC[C@@H](C(=O)NCC(N)=O)NC(=O)[C@H](CC(=O)O)NC(=O)[C@H](Cc3cnc[nH]3)NC1=O)CSC[C@H](NC(=O)[C@H](C)N)C(=O)N[C@@H](CO)C(=O)N[C@@H](CC(=O)O)C(=O)N[C@@H](CCCNC(=N)N)C(=O)N[C@@H](Cc1ccccc1)C(=O)N[C@@H](CCCNC(=N)N)C(=O)N[C@@H](CC(N)=O)C(=O)N2 (H-ACSDRFRNCPYTLHDCG-NH2; linker 2-9-16 via TBMB) | 30 nM |  |  |  |
| CC(C)[C@@H]1NC(=O)[C@H](CCCNC(=N)N)NC(=O)[C@@H]2CSCc3cc(cc(c3)CSC[C@@H](C(=O)NCC(N)=O)NC(=O)[C@H](CCCCN)NC(=O)CNC(=O)[C@H](Cc3ccccc3)NC(=O)[C@H](CC(N)=O)NC1=O)CSC[C@H](NC(=O)[C@H](C)N)C(=O)N[C@@H](Cc1c[nH]c3ccccc13)C(=O)N[C@@H](CCC(N)=O)C(=O)N[C@@H](C(C)C)C(=O)N[C@@H](CCC(N)=O)C(=O)N[C@@H](C(C)C)C(=O)N[C@@H](CC(N)=O)C(=O)N2 (H-ACWQVQVNCRVNFGKCG-NH2; linker 2-9-16 via TBMB) | 800 nM |  |  |  |
| CC(C)C[C@@H]1NC(=O)[C@@H]2CCCN2C(=O)[C@@H]2CSCc3cc(cc(c3)CSC[C@@H](C(=O)NCC(N)=O)NC(=O)[C@H](C(C)O)NC(=O)CNC(=O)[C@H](CO)NC(=O)[C@H](Cc3c[nH]c4ccccc34)NC1=O)CSC[C@H](NC(=O)[C@H](C)N)C(=O)N[C@@H](CO)C(=O)N[C@@H](CC(=O)O)C(=O)N[C@@H](CCCNC(=N)N)C(=O)N[C@@H](Cc1ccccc1)C(=O)N[C@@H](CCCNC(=N)N)C(=O)N[C@@H](CC(N)=O)C(=O)N2 (single isomer, unassigned) | 28.6 nM |  |  |  |
| CC(C)[C@@H]1NC(=O)[C@@H](NC(=O)[C@H](C)N)CSCc2cc3cc(c2)CSC[C@@H](C(=O)NCC(N)=O)NC(=O)[C@H](C(C)O)NC(=O)[C@H](C(C)C)NC(=O)[C@H](Cc2c[nH]c4ccccc24)NC(=O)[C@H](CC(N)=O)NC(=O)[C@H](C(C)C)NC(=O)[C@H](CCCNC(=N)N)NC(=O)[C@H](CSC3)NC(=O)[C@H](Cc2ccc(O)cc2)NC(=O)[C@H](CC(N)=O)NC(=O)[C@H](Cc2cnc[nH]2)NC1=O (single isomer, unassigned) | 1800 nM |  |  |  |
